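Protocol summary: plate cells (96-well), add compound at 5 concentrations, incubate 48 h, interpolate endpoints linearly. Here, GI50 denotes the concentration required for 50% inhibition of growth. TGI: concentration producing complete growth inhibition.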
Assays:
Test in all cases: growth of human tumour cells (NCI), 48 h
[1] = test system: SK-MEL-5 melanoma
[2] = test system: U251 CNS
[3] = test system: SR leukemia
[4] = test system: SNB-19 CNS
[5] = test system: TK-10 renal
[6] = test system: T-47D breast
[7] = test system: K-562 leukemia
[8] = test system: SK-MEL-2 melanoma
[9] = test system: M14 melanoma
[10] = test system: SK-MEL-28 melanoma
[11] = test system: BT-549 breast
[12] = test system: OVCAR-3 ovarian
[13] = test system: KM12 colon
[14] = test system: ACHN renal
[15] = test system: 786-0 renal
[16] = test system: HL-60(TB) leukemia
[17] = test system: SN12C renal
[18] = test system: SNB-75 CNS
[19] = test system: RPMI-8226 leukemia
[20] = test system: OVCAR-5 ovarian
[21] = test system: NCI-H522 lung
[22] = test system: NCI-H460 lung
[23] = test system: NCI-H23 lung
[24] = test system: LOX IMVI melanoma
[25] = test system: MOLT-4 leukemia
[26] = test system: IGROV1 ovarian
[27] = test system: HOP-92 NSCLC
[28] = test system: DU-145 prostate
[29] = test system: SF-268 CNS
[30] = test system: SF-295 CNS
[31] = test system: HCT-15 colon
[32] = test system: A498 renal
[33] = test system: OVCAR-8 ovarian
[34] = test system: RXF 393 renal
[35] = test system: MALME-3M melanoma
[36] = test system: PC-3 prostate
[37] = test system: EKVX NSCLC
[38] = test system: NCI/ADR-RES ovarian
[39] = test system: SK-OV-3 ovarian
[40] = test system: MDA-MB-231 breast
[41] = test system: OVCAR-4 ovarian
[42] = test system: CCRF-CEM leukemia
[43] = test system: HCT-116 colon
[44] = test system: SW-620 colon
[45] = test system: UACC-62 melanoma
[46] = test system: HCC-2998 colon
[47] = test system: A549 NSCLC
[48] = test system: NCI-H226 lung
[49] = test system: CAKI-1 renal
[50] = test system: SF-539 CNS
[51] = test system: UO-31 renal
[52] = test system: HT29 colon
[53] = test system: HS 578T breast
[54] = test system: COLO 205 colon
[55] = test system: MCF7 breast
[56] = test system: HOP-62 NSCLC
[57] = test system: UACC-257 melanoma

## O=C(N/N=C/c1ccc[nH]1)c1[nH]c2ccc(Br)cc2c1-c1ccccc1
[1]
  GI50: 344 nM
  TGI: 1600 nM
[2]
  GI50: 349 nM
  TGI: 4.57 µM
[3]
  GI50: 273 nM
[4]
  GI50: 423 nM
  TGI: 11.5 µM
[5]
  GI50: 1710 nM
  TGI: 13.9 µM
[6]
  GI50: 319 nM
  TGI: 7.25 µM
[7]
  GI50: 253 nM
  TGI: 29.8 µM
[8]
  GI50: 379 nM
  TGI: 13.9 µM
[9]
  GI50: 322 nM
  TGI: 10.7 µM
[10]
  GI50: 653 nM
  TGI: 16.1 µM
[11]
  GI50: 416 nM
  TGI: 2420 nM
[12]
  GI50: 477 nM
  TGI: 12.4 µM
[13]
  GI50: 477 nM
  TGI: 6.08 µM
[14]
  GI50: 516 nM
  TGI: 5.88 µM
[15]
  GI50: 669 nM
  TGI: 7.37 µM
[16]
  GI50: 235 nM
  TGI: 619 nM
[17]
  GI50: 410 nM
  TGI: 3.91 µM
[18]
  GI50: 187 nM
  TGI: 3.83 µM
[19]
  GI50: 400 nM
  TGI: 10.7 µM
[20]
  GI50: 489 nM
  TGI: 10.7 µM
[21]
  GI50: 92.7 nM
  TGI: 515 nM
[22]
  GI50: 338 nM
  TGI: 1230 nM
[23]
  GI50: 456 nM
  TGI: 11.3 µM
[24]
  GI50: 310 nM
  TGI: 4.97 µM
[25]
  GI50: 437 nM
  TGI: 13.4 µM
[26]
  GI50: 460 nM
  TGI: 4.1 µM
[27]
  GI50: 1770 nM
  TGI: 9.77 µM
[28]
  GI50: 489 nM
  TGI: 12.4 µM
[29]
  GI50: 1570 nM
  TGI: 9.84 µM
[30]
  GI50: 243 nM
  TGI: 1020 nM
[31]
  GI50: 297 nM
  TGI: 10.9 µM
[32]
  GI50: 6.36 µM
  TGI: 21.9 µM
[33]
  GI50: 361 nM
  TGI: 3.42 µM
[34]
  GI50: 339 nM
  TGI: 10.3 µM
[35]
  GI50: 410 nM
  TGI: 11.5 µM
[36]
  GI50: 441 nM
  TGI: 8.15 µM
[37]
  GI50: 881 nM
  TGI: 9.16 µM
[38]
  GI50: 316 nM
  TGI: 2190 nM
[39]
  GI50: 614 nM
  TGI: 9.89 µM
[40]
  GI50: 572 nM
  TGI: 6.09 µM
[41]
  GI50: 954 nM
  TGI: 12.1 µM
[42]
  GI50: 385 nM
  TGI: 11.8 µM
[43]
  GI50: 318 nM
  TGI: 11 µM
[44]
  GI50: 378 nM
  TGI: 13.6 µM
[45]
  GI50: 191 nM
  TGI: 1760 nM
[46]
  GI50: 408 nM
  TGI: 4.81 µM
[47]
  GI50: 345 nM
  TGI: 6.88 µM
[48]
  GI50: 398 nM
  TGI: 2780 nM
[49]
  GI50: 362 nM
  TGI: 9.86 µM
[50]
  GI50: 219 nM
  TGI: 590 nM
[51]
  GI50: 489 nM
  TGI: 5.74 µM
[52]
  GI50: 324 nM
  TGI: 4.31 µM
[53]
  GI50: 380 nM
  TGI: 19.7 µM
[54]
  GI50: 298 nM
  TGI: 1320 nM
[55]
  GI50: 178 nM
  TGI: 2410 nM
[56]
  GI50: 526 nM
  TGI: 8.93 µM
[57]
  GI50: 688 nM
  TGI: 13.7 µM

— PubChem BioAssay (NCI)
